Assay results as given in patent publication US9669031B2, “MNK inhibitors and methods related thereto” (eFFECTOR Therapeutics, Inc., priority 2014, dated 2017).
Read-outs that look alike come from different tables or passages of the source.

Columns and labels:
[1] = Balb/c, mouse, in vivo, po, 10 mg/kg
[2] = in vivo; conditions: Balb/c, mouse, po, 10 mg/kg; for AUC(0-t): AUClast; for half-life: T½
[3] = Pharmacokinetics in Balb/c mice, single intravenous bolus administration; type: in vivo; conditions: intravenous bolus 1 mg/kg, gender F; for AUC(0-inf) / half-life / Vd: female, mouse, plasma; for AUC(0-inf): read-out: AUCINF_obs; for half-life: read-out: T½ (converted); for Vd: read-out: Vss
[4] = formulation 10DMI/15EtOH/35PG/40Saline
[5] = formulation 10DMI/15EtOH/35PG/40D5W

Tlast ([1]; female) [h] | AUC(0-t) ([2]; female) [ng·h/mL] | Cmax ([2]; female) [ng/mL] | Tmax ([2]; female) [h] | half-life ([2]; female) [h] | SMILES | further results
 |  |  |  |  | CC1(C2CCCC2)NC(=O)c2ccc(Nc3ccncn3)c(=O)n21 (stereo not drawn) [Cpd. No. 9, 3-cyclopentyl-3-methyl-6-(pyrimidin-4-ylamino)-2,3-dihydroimidazo[1,5-a]pyridine-1,5-dione] | Tlast ([1]; male): 8 h; AUC(0-t) ([2]; male): 4830 ng·h/mL; Cmax ([2]; male): 5050 ng/mL; Tmax ([2]; male): 0.5 h; half-life ([2]; male): 0.831 h
8 | 6420 | 1720 | 0.5 | 1.87 | CC1(C)NC(=O)c2ccc(Nc3cc(NC(=O)C4CC4)ncn3)c(=O)n21 [Cpd. No. 10, N-(6-((3,3-dimethyl-1,5-dioxo-1,2,3,5-tetrahydroimidazo[1,5-a]pyridin-6-yl)amino)pyrimidin-4-yl)cyclopropanecarboxamide] | Tlast ([1]; male): 24 h; AUC(0-inf) [3, 4]: 396 ng·h/mL; half-life [3, 4]: 2.8 h; Vd [3, 4]: 5.45 L/kg; Cl_obs [3, 4]: 42.1 mL/min/kg; AUC(0-t) ([2]; male): 8750 ng·h/mL; Cmax ([2]; male): 2160 ng/mL; Tmax ([2]; male): 1 h; half-life ([2]; male): 4.22 h
 |  |  |  |  | CC1(C(F)(F)F)NC(=O)c2ccc(Nc3ccncn3)c(=O)n21 (stereo not drawn) [Cpd. No. 14, 3-methyl-6-(pyrimidin-4-ylamino)-3-(trifluoromethyl)-2,3-dihydroimidazo[1,5-a]pyridine-1,5-dione] | Tlast ([1]; male): 8 h; AUC(0-t) ([2]; male): 255 ng·h/mL; Cmax ([2]; male): 405 ng/mL; Tmax ([2]; male): 0.5 h
4 | 109 | 50.2 | 0.5 | 2.66 | O=C1NC2(CCCC2)n2c1ccc(Nc1cc(NC(=O)C3CC3)ncn1)c2=O [Cpd. No. 21, N-[6-[(1,5-dioxospiro[2H-imidazo[1,5-a]pyridine-3,1′-cyclopentane]-6-yl)amino]pyrimidin-4-yl]cyclopropanecarboxamide] | 
8 | 1620 | 371 | 2 | 1.93 | CC1(CC(F)(F)F)NC(=O)c2ccc(Nc3cc(NC(=O)C4CC4)ncn3)c(=O)n21 (stereo not drawn) [Cpd. No. 22, N-(6-((3-methyl-1,5-dioxo-3-(2,2,2-trifluoroethyl)-1,2,3,5-tetrahydroimidazo[1,5-a]pyridin-6-yl)amino)pyrimidin-4-yl)cyclopropanecarboxamide] | 
8 | 75.7 | 17.5 | 1 | 3.49 | CC1(C2CCCC2)NC(=O)c2ccc(Nc3cc(NC(=O)C4CC4)ncn3)c(=O)n21 (stereo not drawn) [Cpd. No. 23, N-[6-[(3-cyclopentyl-3-methyl-1,5-dioxo-2H-imidazo[1,5-a]pyridin-6-yl)amino]pyrimidin-4-yl]cyclopropanecarboxamide] | 
8 | 921 | 192 | 2 | 1.91 | CC1(C(F)(F)F)NC(=O)c2ccc(Nc3cc(NC(=O)C4CC4)ncn3)c(=O)n21 (stereo not drawn) [Cpd. No. 24, N-[6-[[3-methyl-1,5-dioxo-3-(trifluoromethyl)-2H-imidazo[1,5-a]pyridin-6-yl]amino]pyrimidin-4-yl]cyclopropanecarboxamide] | 
24 | 71300 | 6930 | 2 | 3.46 | CC1(C(F)(F)F)NC(=O)c2c(Cl)cc(Nc3ccncn3)c(=O)n21 (stereo not drawn) [Cpd. No. 35, 8-chloro-3-methyl-6-(pyrimidin-4-ylamino)-3-(trifluoromethyl)-2H-imidazo[1,5-a]pyridine-1,5-dione] | 
8 | 132 | 21.8 | 2 | 6.75 | CC1(C)NC(=O)c2c(Cl)cc(Nc3cc(NC(=O)C4CC4)ncn3)c(=O)n21 [Cpd. No. 43, N-[6-[(8-chloro-3,3-dimethyl-1,5-dioxo-2H-imidazo[1,5-a]pyridin-6-yl)amino]pyrimidin-4-yl]cyclopropanecarboxamide] | 
8 | 42.9 | 9.16 | 2 | 7.55 | O=C1NC2(CCCCC2)n2c1c(Cl)cc(Nc1cc(NC(=O)C3CC3)ncn1)c2=O [Cpd. No. 45, N-(6-((8′-chloro-1′,5′-dioxo-1′,5′-dihydro-2′H-spiro[cyclohexane-1,3′-imidazo[1,5-a]pyridin]-6′-yl)amino)pyrimidin-4-yl)cyclopropanecarboxamide] | 
24 |  |  | 4 |  | O=C1NC2(CCC(F)(F)CC2)n2c1c(Cl)cc(Nc1cc(NC(=O)C3CC3)ncn1)c2=O [Cpd. No. 50, N-[6-[(8-chloro-4′,4′-difluoro-1,5-dioxo-spiro[2H-imidazo[1,5-a]pyridine-3,1′-cyclohexane]-6-yl)amino]pyrimidin-4-yl]cyclopropanecarboxamide] | AUC(0-inf) [3, 4]: 887 ng·h/mL; half-life [3, 4]: 2.47 h; Vd [3, 4]: 3.18 L/kg; Cl_obs [3, 4]: 18.8 mL/min/kg
24 | 31300 | 3160 |  | 7.38 | CC1(c2cccc(Cl)c2)NC(=O)c2c(Cl)cc(Nc3cc(NC(=O)C4CC4)ncn3)c(=O)n21 (stereo not drawn) [Cpd. No. 51, N-[6-[[8-chloro-3-(3-chlorophenyl)-3-methyl-1,5-dioxo-2H-imidazo[1,5-a]pyridin-6-yl]amino]pyrimidin-4-yl]cyclopropanecarboxamide] | AUClast ([1]; female): 35800 ng·h/mL; T½ ([1]; female): 8.36 h; AUC(0-inf) [3, 4]: 2500 ng·h/mL; half-life [3, 4]: 5.78 h; Vd [3, 4]: 2.79 L/kg; Cl_obs [3, 4]: 6.66 mL/min/kg
24 | 38100 | 3370 |  | 5.41 | CC1(c2cccc(F)c2)NC(=O)c2c(Cl)cc(Nc3cc(NC(=O)C4CC4)ncn3)c(=O)n21 (stereo not drawn) [Cpd. No. 52, N-[6-[[8-chloro-3-(3-fluorophenyl)-3-methyl-1,5-dioxo-2H-imidazo[1,5-a]pyridin-6-yl]amino]pyrimidin-4-yl]cyclopropanecarboxamide] | AUClast ([1]; female): 22300 ng·h/mL; T½ ([1]; female): 3.56 h
24 | 56900 | 6170 | 1 | 2.61 | CC1(CC(F)(F)F)NC(=O)c2c(Cl)cc(Nc3ccncn3)c(=O)n21 (stereo not drawn) [Cpd. No. 55, 8-chloro-3-methyl-6-(pyrimidin-4-ylamino)-3-(2,2,2-trifluoroethyl)-2H-imidazo[1,5-a]pyridine-1,5-dione] | 
24 | 5430 | 690 | 2 | 5.32 | CC1(c2cccc(Cl)c2)NC(=O)c2c(Cl)cc(Nc3ccncn3)c(=O)n21 (stereo not drawn) [Cpd. No. 58, 8-chloro-3-(3-chlorophenyl)-3-methyl-6-(pyrimidin-4-ylamino)-2H-imidazo[1,5-a]pyridine-1,5-dione] | 
8 | 1470 | 983 | 0.25 | 2 | Nc1cc(Nc2cc(Cl)c3n(c2=O)C2(CCCCC2)NC3=O)ncn1 [Cpd. No. 70, 6′-((6-aminopyrimidin-4-yl)amino)-8′-chloro-2′H-spiro[cyclohexane-1,3′-imidazo[1,5-a]pyridine]-1′,5′-dione] | AUClast ([1]; female): 2010 ng·h/mL; T½ ([1]; female): 3.74 h; AUC(0-inf) [3, 5]: 333 ng·h/mL; half-life [3, 5]: 0.561 h; Vd [3, 5]: 1.8 L/kg; Cl_obs [3, 5]: 50.1 mL/min/kg
 |  | 630 | 0.3 | 2.5 | Cl.O=C1NC2(CCCCC2)n2c1c(Cl)cc(Nc1ccncn1)c2=O [Cpd. No. 109, 8-chloro-6-(pyrimidin-4-ylamino)spiro[2H-imidazo[1,5-a]pyridine-3,1′-cyclohexane]-1,5-dione hydrochloride] | 
 |  | 1700 | 0.3 | 2.6 | Cl.O=C1NC2(CCC(F)(F)CC2)n2c1c(Cl)cc(Nc1ccncn1)c2=O [Cpd. No. 110, 8-chloro-4′,4′-difluoro-6-(pyrimidin-4-ylamino)spiro[2H-imidazo[1,5-a]pyridine-3,1′-cyclohexane]-1,5-dione hydrochloride] | 

SMILES | Tlast ([1]; female) [h] | AUC(0-t) ([2]; female) [ng·h/mL] | Cmax ([2]; female) [ng/mL] | Tmax ([2]; female) [h] | half-life ([2]; female) [h] | further results
O=C1NC2(CCCNC2)n2c1ccc(Nc1ccncn1)c2=O (stereo not drawn) [Cpd. No. 20, 6-(pyrimidin-4-ylamino)-1H-spiro[imidazo[1,5-a]pyridine-3,3′-piperidine]-1,5(2H)-dione] | 4 | 2090 | 2240 | 0.5 | 0.643 | 
Cl.O=C1NC2(CCCNC2)n2c1c(Cl)cc(Nc1ccncn1)c2=O (stereo not drawn) [Cpd. No. 54, 8-chloro-6-(pyrimidin-4-ylamino)spiro[2H-imidazo[1,5-a]pyridine-3,3′-piperidine]-1,5-dione hydrochloride] |  |  | 1050 | 0.5 |  | 
